The text below walks through data of patent US20100120690A1, “Polypeptides Having Antimicrobial Activity and Polynucleotides Encoding Same” (Novozymes Adenium Biotech A/S, priority 2005, published 2010).

The subject of test [1] is Staphylococcus aureus, ATCC 25923. Nature of the test: MIC, NCCLS/CLSI guidelines (Example 5), strain B. To be noted: average of two independent experiments. Format: cell-based. The procedure, abridged: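 MICs of purified plectasin peptides are measured according to NCCLS/CLSI guidance. Each value averages duplicate independent experiments and is given as a category relative to wild-type: 0 above 100%, 1 80-100%, 2 50-80%, 3 below 50%.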

For another test, the system named is M. luteus. Nature of the test: Minimal Inhibitory Concentration, NCCLS guidelines (Example 4). Format: cell-based, Micrococcus luteus. To be noted: purified peptide. Here is the method:
(§1) The Minimal Inhibitory Concentration (MIC, micrograms/mL) was determined to test for their antimicrobial activity following the NCCLS guidelines (Clinical and Laboratory Standards Institute; formerly known as National Committee for Clinical and Laboratory Standards).

The subject of test [2] is B. subtilis. The description is as above. The class given is cell-based, Bacillus subtilis. To be noted: purified peptide. Here is the method:
as §1

Test [3] has as its system Staphylococcus carnosus ATCC51365. Nature of the test: Yeast screening assay: radial diffusion assay of yeast supernatants. The class given is cell-based. The arrangement: key: An activity of 3 is better than Plectasin; An activity of 2 corresponds to the activity of Plectasin; 1 is worse than Plectasin. To be noted: yeast supernatant, clearing zone in radial diffusion assay. The method in brief: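 Activity scores (1 worse, 2 equal, 3 better than wild-type plectasin) come from the size of the radial-diffusion clearing zone against S. carnosus at 5×10^5 cfu/mL. Test samples were culture supernatants of yeast transformants induced with galactose for 3 days at 30 °C, and plates were developed at 37 °C with MTT.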

The test system of test [4] is B. subtilis. The test can be described thus: Minimal Effective Concentration (MEC) assay. Format: cell-based, Bacillus subtilis. Here is the method:
(§2) Three antimicrobial polypeptides, which are variants of SEQ ID NO: 1, were tested for antimicrobial activity. A Minimal Effective Concentration assay (MEC, expressed as micrograms/mL) against different microorganisms was performed using the three plectasin mutants, Y40YR, N17R and Y25R following the protocol described in the book of Methods in Molecular Biology, Vol. 78, Antibacterial peptide protocol William M. Shafer, Human Press.

The subject of a further test is S. epidermis. The test can be described thus: Minimal Effective Concentration (MEC) assay. Format: cell-based, Staphylococcus epidermidis. Here is the method: as §2
In test [5] the test system is panel of 6 different strains of Staphylococcus aureus. The test can be described thus: Average MIC, NCCLS/CLSI guidelines using caMHB (Example 6). Format: cell-based. Conditions: average over 6 S. aureus strains, duplicate; MIC above 32 counted as 64; read after 18-24 hours at 37° C. The procedure, abridged: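 Six Staphylococcus aureus strains, MSSA and MRSA, were exposed in duplicate to peptide dilutions from 32 down to 0.03 microgram/mL in caMHB following CLSI guidance. Growth was scored after 18-24 h incubation at 37° C. The tabulated value is the mean MIC, with 64 used for any MIC >32 micrograms/mL.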

Turning to “GFGCNGPWDEDDMQCHNHCKSIKGYKGGYCAKGGFVCKCY (listed as Pseudoplectania nigrella) [wildtype, wildtype plectasin, parent antimicrobial polypeptide, reference compound]”, the “MIC, strain B” value in test [1] is on record as “(22 μg/mL)”. Also, in test [1] (relative to wildtype Plectasin), the “Relative MIC, strain B” value is given as 1 (80-100% of Plectasin wildtype MIC). Besides, the “MIC against M. luteus” value in the test on M. luteus turned out to be 32 micrograms/mL. Also, in the test on B. subtilis [2], the “MIC against B. subtilis” value is 1 micrograms/mL. The “Activity (antimicrobial activity relative to the activity of plectasin)” value in test [3] was determined as 2. In addition, the “MEC against B. subtilis” value with B. subtilis [4] came to 0.09 micrograms/mL. Besides, in the test with S. epidermis, the “MEC against S. epidermis” value was 0.98 micrograms/mL. The “Average MIC” value in test [5] turned out to be 14 micrograms/mL.
